Measurements taken from patent publication US8044213B2, “Thiazolyl-benzimidazoles” (Hoffmann-La Roche Inc., priority 2008, dated 2011).

Tests used:
GST-Plk1 = biological target: T1, GST-Plk1 (Homo sapiens, UniProt P53350); assay: Biochemical Characterization Assay A (HTRF, phosphorylation of GST-p53); conditions: full-length GST-Plk1, GST-p53 substrate, HTRF signal
T1 construct: Full-length, active GST-Plk1 was purified from Sf9 insect cells; made in house; host or cells: Sf9 insect cells
Protocol: Full-length, active GST-Plk1 was purified from Sf9 insect cells, and full-length GST-p53 was purified in E. coli. Anti-phospho p53 antibody was purchased from Cell Signaling Technology. Europium-conjugated anti-rabbit antibody was purchased from PerkinElmer Life and Analytical Sciences. APC-conjugated anti-GST antibody was purchased from Prozyme.
To two microliters of compound (0.6 nM-4 mM) in DMSO or plain DMSO for control wells, 38 microliters of 20 mM HEPES pH 7, 50 mM NaCl, 10 mM MgCl2, 0.5 mM TCEP, 0.1 mM sodium orthovanadate, 0.1 mg/ml BSA, and 0.05% Triton X-100 (Kinase Assay Buffer) were added. Eight microliters of the compound solution were added to a 384-well black microtiter plate, followed by six microliters of GST-p53 (17 ug/ml) and ATP (333 uM) in Kinase Assay Buffer. Six microliters of GST-Plk1 (3 ug/ml) in Kinase Assay Buffer were then added and the solution incubated at 37° C. for 35 minutes. Six microliters of solution containing 43 mM EDTA to stop the reaction and a 1:600 dilution of anti-phospho-p53 antibody in 20 mM HEPES pH 7, 50 mM NaCl, and 0.5 mg/ml BSA (Antibody Binding Buffer) were added and the solution incubated at 37° C. for 30 minutes. Six microliters of solution containing 9 nM europium-conjugated anti-rabbit antibody and 120 nM APC-conjugated anti-GST antibody in Antibody Binding Buffer were then added and the mixture incubated at room temperature for 1.5 hours. The HTRF signal was read on the Envision reader (PerkinElmer Life and Analytical Sciences).
(§1) The IC50 values for each compound were generated using an Excel template. The % conversion readings of Total and Blank were used as 0% and 100% inhibition. The percent inhibition values of reactions in the presence of compounds were calculated, and plotted against compound concentrations. All data were fitted into a Dose Response One Site model (4 parameter logistic model) as the following: (A+4B−A)/(1+((x/C)^13)))), with A and B as the bottom and top of the curve (highest and lowest inhibition), respectively, and C as IC50 and D as Hill Coefficient of the compound.

PLK1 = biological target: T2, PLK1 (Homo sapiens, UniProt P53350); assay: Biochemical Characterization Assay B (peptide substrate, LABCHIP EZ Reader II); conditions: PLK1, peptide RRRAGALMDASFEEQ-CONH2, % conversion on LABCHIP EZ Reader II
T2 construct: Full-length, active GST-Plk1 was purified from Sf9 insect cells; GST (N); made in house; host or cells: Sf9 insect cells
T2 sequence (P53350 whole entry): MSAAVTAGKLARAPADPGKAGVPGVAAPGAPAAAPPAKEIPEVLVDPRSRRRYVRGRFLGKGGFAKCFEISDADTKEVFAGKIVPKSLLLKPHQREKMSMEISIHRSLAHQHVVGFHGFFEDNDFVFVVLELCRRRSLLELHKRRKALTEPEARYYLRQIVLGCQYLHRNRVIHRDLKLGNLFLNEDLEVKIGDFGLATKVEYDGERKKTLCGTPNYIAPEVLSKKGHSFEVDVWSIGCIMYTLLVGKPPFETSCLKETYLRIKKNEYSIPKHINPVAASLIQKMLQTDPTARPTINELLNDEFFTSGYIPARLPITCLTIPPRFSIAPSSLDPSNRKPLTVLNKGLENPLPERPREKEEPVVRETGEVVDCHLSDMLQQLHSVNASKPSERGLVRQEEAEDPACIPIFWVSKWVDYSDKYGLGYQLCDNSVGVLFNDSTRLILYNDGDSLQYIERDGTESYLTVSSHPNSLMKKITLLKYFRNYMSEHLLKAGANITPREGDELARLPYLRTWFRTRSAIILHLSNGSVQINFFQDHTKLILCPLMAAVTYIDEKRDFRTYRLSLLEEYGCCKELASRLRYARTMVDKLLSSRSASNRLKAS
Protocol: Compounds were serially diluted to 6400, 2133, 711, 237, 79, 26, 8.78, 2.93, 0.98 and 0.33 μM in 100% DMSO. Diluted compound was further diluted 20 fold with Kinase Assay Buffer (KAB). Peptide RRRAGALMDASFEEQ-CONH2 (MW 2090) was diluted to 1.2 μM with KAB and ATP was added to 400 μM. PLK1 stock, prepared as described above, was diluted to 3 μg protein/mL with KAB right before it was added to MATRIX 384-Well Polypropylene Black Plates to start the reaction. 20 μL of KAB diluted compounds (or 5% DMSO in KAB for Total and Blank), 20 μL of KAB diluted peptide with ATP and 40 μL of KAB diluted PLK1 solution (KAB without PLK 1 for Blanks) were transferred to each well of the polypropylene plates. The reaction mixtures were incubated at room temperature for 40 minutes. Reactions were stopped by addition of 10 uL Reaction Stopping Buffer (RSB) to each well. Plates were then read on LABCHIP EZ Reader II from Caliper Life Science.
as §1

T1 sequence (P53350 whole entry): as above

SMILES	IC50 (GST-Plk1) [nM]	IC50 (PLK1) [nM]
CN1CCN(Cc2ccc3ncn(-c4nc(-c5ccc(Cl)cc5)c(C(N)=O)s4)c3c2)CC1 [Example 19, 4-(4-Chloro-phenyl)-2-[6-(4-methyl-piperazin-1-ylmethyl)-benzoimidazol-1-yl]-thiazole-5-carboxylic acid amide]	499	–
NC(=O)c1sc(-n2cnc3ccc(OC4CCCCC4)cc32)nc1-c1cccc(Cl)c1 [Example 25, 4-(3-Chloro-phenyl)-2-(6-cyclohexyloxy-benzoimidazol-1-yl)-thiazole-5-carboxylic acid amide]	660	–
CN1CCN(Cc2ccc3c(c2)ncn3-c2nc(-c3cccc(Cl)c3)c(C(N)=O)s2)CC1 [Example 3, 4-(3-Chloro-phenyl)-2-[5-(4-methyl-piperazin-1-ylmethyl)-benzoimidazol-1-yl]-thiazole-5-carboxylic acid amide]	1100	–
NC(=O)c1sc(-n2cnc3ccc(CN4CCCCC4)cc32)nc1-c1cccc(Cl)c1 [Example 8, 4-(3-Chloro-phenyl)-2-(6-piperidin-1-ylmethyl-benzoimidazol-1-yl)-thiazole-5-carboxylic acid amide]	3440	–
CN1CCC(NC(=O)c2ccc3ncn(-c4nc(-c5cccc(Cl)c5)c(C(N)=O)s4)c3c2)CC1 [Example 10, 3-[5-Carbamoyl-4-(3-chloro-phenyl)-thiazol-2-yl]-3H-benzoimidazole-5-carboxylic acid (1-methyl-piperidin-4-yl)-amide]	2020	–
CN1CCN(Cc2ccc3c(c2)ncn3-c2nc(-c3ccc(Cl)cc3)c(C(N)=O)s2)CC1 [Example 18, 4-(4-Chloro-phenyl)-2-[5-(4-methyl-piperazin-1-ylmethyl)-benzoimidazol-1-yl]thiazole-5-carboxylic acid amide]	> 80000	–
CN1CCN(Cc2ccc3ncn(-c4nc(-c5ccccc5C(F)(F)F)c(C(N)=O)s4)c3c2)CC1 [Example 17, 2-[6-(4-Methyl-piperazin-1-ylmethyl)-benzoimidazol-1-yl]-4-(2-trifluoromethyl-phenyl)-thiazole-5-carboxylic acid amide]	1140	–
CN1CCN(Cc2ccc3ncn(-c4nc(-c5ccc(C(F)(F)F)cc5)c(C(N)=O)s4)c3c2)CC1 [Example 47, 2-[6-(4-Methyl-piperazin-1-ylmethyl)-benzoimidazol-1-yl]-4-(4-trifluoromethyl-phenyl)-thiazole-5-carboxylic acid amide]	661	–
NC(=O)c1sc(-n2cnc3ccc(OCCCCN4CCOCC4)cc32)nc1-c1cccc(Cl)c1 [Example 38, 4-(3-Chloro-phenyl)-2-[6-(4-morpholin-4-yl-butoxy)-benzoimidazol-1-yl]-thiazole-5-carboxylic acid amide]	–	11
NC(=O)c1sc(-n2cnc3ccc(OCCCN4CCCCC4)cc32)nc1-c1cccc(Cl)c1 [Example 32, 4-(3-Chloro-phenyl)-2-[6-(3-piperidin-1-yl-propoxy)-benzoimidazol-1-yl]-thiazole-5-carboxylic acid amide]	–	80
NC(=O)c1sc(-n2cnc3ccc(CCCCN4CCOCC4)cc32)nc1-c1cccc(Cl)c1 [Example 41, 4-(3-Chloro-phenyl)-2-[6-(4-morpholin-4-yl-butyl)-benzoimidazol-1-yl]-thiazole-5-carboxylic acid amide]	–	16

More lines, in order of falling IC50 (GST-Plk1), values ahead:

IC50 (GST-Plk1) [nM]	IC50 (PLK1) [nM]	SMILES
443	–	CN1CCC(NCc2ccc3ncn(-c4nc(-c5cccc(Cl)c5)c(C(N)=O)s4)c3c2)CC1 [Example 7, 4-(3-Chloro-phenyl)-2-{6-[(1-methyl-piperidin-4-ylamino)-methyl]-benzoimidazol-1-yl}-thiazole-5-carboxylic acid amide]
346	–	CN1CCN(Cc2ccc3ncn(-c4nc(-c5ccccc5Cl)c(C(N)=O)s4)c3c2)CC1 [Example 20, 4-(2-Chloro-phenyl)-2-[6-(4-methyl-piperazin-1-ylmethyl)-benzoimidazol-1-yl]-thiazole-5-carboxylic acid amide]
306	–	NC(=O)c1sc(-n2cnc3ccc(CN4CCOCC4)cc32)nc1-c1cccc(Cl)c1 [Example 4, 4-(3-Chloro-phenyl)-2-(6-morpholin-4-ylmethyl-benzoimidazol-1-yl)-thiazole-5-carboxylic acid amide]
215	–	CN1CCN(C(=O)c2ccc3ncn(-c4nc(-c5cccc(Cl)c5)c(C(N)=O)s4)c3c2)CC1 [Example 11, 4-(3-Chloro-phenyl)-2-[6-(4-methyl-piperazine-1-carbonyl)-benzoimidazol-1-yl]-thiazole-5-carboxylic acid amide]
167	–	CN1CCN(Cc2ccc3ncn(-c4nc(-c5ccccc5)c(C(N)=O)s4)c3c2)CC1 [Example 1, 2-[6-(4-Methyl-piperazin-1-ylmethyl)-benzoimidazol-1-yl]-4-phenyl-thiazole-5-carboxylic acid amide]
166	–	NC(=O)c1sc(-n2cnc3ccc(OCCN4CCOCC4)cc32)nc1-c1cccc(Cl)c1 [Example 26, 4-(3-Chloro-phenyl)-2-[6-(2-morpholin-4-yl-ethoxy)-benzoimidazol-1-yl]-thiazole-5-carboxylic acid amide]
161	–	CN(C)CCCOc1ccc2ncn(-c3nc(-c4cccc(Cl)c4)c(C(N)=O)s3)c2c1 [Example 31, 4-(3-Chloro-phenyl)-2-[6-(3-dimethylamino-propoxy)-benzoimidazol-1-yl]-thiazole-5-carboxylic acid amide]
109	–	CN1CCN(CCc2ccc3ncn(-c4nc(-c5cccc(Cl)c5)c(C(N)=O)s4)c3c2)CC1 [Example 9, 4-(3-Chloro-phenyl)-2-{6-[2-(4-methyl-piperazin-1-yl)-ethyl]-benzoimidazol-1-yl}-thiazole-5-carboxylic acid amide]
91	–	NC(=O)c1sc(-n2cnc3ccc(CN4CCN(CCO)CC4)cc32)nc1-c1cccc(Cl)c1 [Example 5, 4-(3-Chloro-phenyl)-2-{6-[4-(2-hydroxy-ethyl)-piperazin-1-ylmethyl]-benzoimidazol-1-yl}-thiazole-5-carboxylic acid amide]
80	–	NC(=O)c1sc(-n2cnc3ccc(OC4CCNCC4)cc32)nc1-c1cccc(Cl)c1 [Example 21, 4-(3-Chloro-phenyl)-2-[6-(piperidin-4-yloxy)-benzoimidazol-1-yl]-thiazole-5-carboxylic acid amide]
59	–	CN1CCN(Cc2ccc3ncn(-c4nc(-c5cccc(C(F)(F)F)c5)c(C(N)=O)s4)c3c2)CC1 [Example 48, 2-[6-(4-Methyl-piperazin-1-ylmethyl)-benzoimidazol-1-yl]-4-(3-trifluoromethyl-phenyl)-thiazole-5-carboxylic acid amide]
32	–	CN1CCN(CCCOc2ccc3ncn(-c4nc(-c5cccc(Cl)c5)c(C(N)=O)s4)c3c2)CC1 [Example 33, 4-(3-Chloro-phenyl)-2-{6-[3-(4-methyl-piperazin-1-yl)-propoxy]-benzoimidazol-1-yl}-thiazole-5-carboxylic acid amide]
21	–	NC(=O)c1sc(-n2cnc3ccc(OCCCN4CCOCC4)cc32)nc1-c1cccc(Cl)c1 [Example 30, 4-(3-Chloro-phenyl)-2-[6-(3-morpholin-4-yl-propoxy)-benzoimidazol-1-yl]-thiazole-5-carboxylic acid amide]
13	–	CN1CCN(Cc2ccc3ncn(-c4nc(-c5cccc(Cl)c5)c(C(N)=O)s4)c3c2)CC1 [Example 2, 4-(3-Chloro-phenyl)-2-[6-(4-methyl-piperazin-1-ylmethyl)-benzoimidazol-1-yl]-thiazole-5-carboxylic acid amide]
